Laboratory results reported in ChEMBL document CHEMBL3611970, “Synthesis and evaluation of isatin-β-thiosemicarbazones as novel agents against antibiotic-resistant Gram-positive bacterial species” (2015).
In brackets after ≈: the same amount, converted by molar mass.

Tests used:
Type in all cases: functional
Staphylococcus aureus [1] = test: Antimicrobial activity against methicillin-resistant Staphylococcus aureus 6-42 clinical isolate after 16 hrs by broth microdilution method; details: 6-42, 16 h
Staphylococcus aureus [2] = test: Antimicrobial activity against methicillin-resistant Staphylococcus aureus 309-7 clinical isolate after 16 hrs by broth microdilution method; details: 309-7, 16 h
Staphylococcus aureus [3] = test: Antimicrobial activity against methicillin-resistant Staphylococcus aureus 309-6 clinical isolate after 16 hrs by broth microdilution method; details: 309-6, 16 h
Staphylococcus aureus [4] = test: Antimicrobial activity against methicillin-resistant Staphylococcus aureus 6281 clinical isolate after 16 hrs by broth microdilution method; details: Staphylococcus aureus, 6281, 16 h
Enterococcus faecalis [5] = test: Antimicrobial activity against vancomycin-susceptible Enterococcus faecalis after 16 hrs by broth microdilution method
Pseudomonas aeruginosa = test: Antimicrobial activity against Pseudomonas aeruginosa PAO1 after 16 hrs by broth microdilution method; details: PAO1, 16 h
Staphylococcus aureus [6] = test: Antimicrobial activity against methicillin-resistant Staphylococcus aureus 309-3 clinical isolate after 16 hrs by broth microdilution method; details: 309-3, 16 h
Staphylococcus aureus [7] = test: Antimicrobial activity against Staphylococcus aureus ATCC 6538 after 16 hrs by broth microdilution method; details: ATCC 6538, 16 h
Staphylococcus aureus [8] = test: Antimicrobial activity against methicillin-resistant Staphylococcus aureus 309-4 clinical isolate after 16 hrs by broth microdilution method; details: 309-4, 16 h
Staphylococcus aureus [9] = test: Antimicrobial activity against methicillin-resistant Staphylococcus aureus 8-21 clinical isolate after 16 hrs by broth microdilution method; details: 8-21, 16 h
Bacillus spizizenii = test: Antimicrobial activity against Bacillus subtilis ATCC 6633 after 16 hrs by broth microdilution method; details: ATCC 6633, 16 h
Staphylococcus aureus [10] = test: Antimicrobial activity against methicillin-resistant Staphylococcus aureus 309-8 clinical isolate after 16 hrs by broth microdilution method; details: 309-8, 16 h
Staphylococcus aureus [11] = test: Antimicrobial activity against methicillin-resistant Staphylococcus aureus 309-1 clinical isolate after 16 hrs by broth microdilution method; details: 309-1, 16 h
Enterococcus faecalis [12] = test: Antimicrobial activity against Enterococcus faecalis VRE-309 after 16 hrs by broth microdilution method; details: VRE-309, 16 h
Klebsiella pneumoniae = test: Antimicrobial activity against Klebsiella pneumoniae KP-249 clinical isolate after 16 hrs by broth microdilution method; details: KP-249, 16 h
Staphylococcus aureus [13] = test: Antimicrobial activity against methicillin-resistant Staphylococcus aureus Chaoyang clinical isolate after 16 hrs by broth microdilution method
Staphylococcus aureus [14] = test: Antimicrobial activity against methicillin-resistant Staphylococcus aureus 8-24 clinical isolate after 16 hrs by broth microdilution method; details: 8-24, 16 h

SMILES	MIC (Staphylococcus aureus [1]) [µg/mL]	MIC (Staphylococcus aureus [2]) [µg/mL]	MIC (Staphylococcus aureus [3]) [µg/mL]	MIC (Staphylococcus aureus [4]) [µg/mL]	MIC (Enterococcus faecalis [5]) [µg/mL]	MIC (Pseudomonas aeruginosa) [µg/mL]	MIC (Staphylococcus aureus [6]) [µg/mL]	MIC (Staphylococcus aureus [7]) [µg/mL]	MIC (Staphylococcus aureus [8]) [µg/mL]	MIC (Staphylococcus aureus [9]) [µg/mL]	MIC (Bacillus spizizenii) [µg/mL]	MIC (Staphylococcus aureus [10]) [µg/mL]	MIC (Staphylococcus aureus [11]) [µg/mL]	MIC (Enterococcus faecalis [12]) [µg/mL]	MIC (Klebsiella pneumoniae) [µg/mL]	MIC (Staphylococcus aureus [13]) [µg/mL]	MIC (Staphylococcus aureus [14]) [µg/mL]
O=C1Nc2c(Cl)cccc2/C1=N/NC(=S)Nc1ccccc1	3.12 (≈ 9.43 µM)	0.78 (≈ 2.36 µM)	6.25 (≈ 18.9 µM)	1.56 (≈ 4.72 µM)	6.25 (≈ 18.9 µM)	> 100	6.25 (≈ 18.9 µM)	1.56 (≈ 4.72 µM)	1.56 (≈ 4.72 µM)	3.12 (≈ 9.43 µM)	≤ 0.78	1.56 (≈ 4.72 µM)	6.25 (≈ 18.9 µM)	3.12 (≈ 9.43 µM)	> 100	0.78 (≈ 2.36 µM)	1.56 (≈ 4.72 µM)
O=C1Nc2c(Cl)cccc2/C1=N/NC(=S)Nc1ccc(Cl)cc1	0.78 (≈ 2.14 µM)	0.78 (≈ 2.14 µM)	1.56 (≈ 4.27 µM)	1.56 (≈ 4.27 µM)	3.12 (≈ 8.54 µM)	> 100	1.56 (≈ 4.27 µM)	1.56 (≈ 4.27 µM)	0.78 (≈ 2.14 µM)	0.78 (≈ 2.14 µM)	≤ 0.78	1.56 (≈ 4.27 µM)	0.78 (≈ 2.14 µM)	1.56 (≈ 4.27 µM)	> 100	0.39 (≈ 1.07 µM)	1.56 (≈ 4.27 µM)
Cc1ccc(NC(=S)N/N=C2\C(=O)Nc3c(Cl)cccc32)cc1	0.78 (≈ 2.26 µM)	0.78 (≈ 2.26 µM)	1.56 (≈ 4.52 µM)	1.56 (≈ 4.52 µM)	6.25 (≈ 18.1 µM)	> 100	0.78 (≈ 2.26 µM)	1.56 (≈ 4.52 µM)	0.78 (≈ 2.26 µM)	0.78 (≈ 2.26 µM)	≤ 0.78	0.78 (≈ 2.26 µM)	0.78 (≈ 2.26 µM)	3.12 (≈ 9.05 µM)	> 100	0.39 (≈ 1.13 µM)	1.56 (≈ 4.52 µM)
Cc1ccccc1NC(=S)N/N=C1\C(=O)Nc2c(Cl)cccc21	0.78 (≈ 2.26 µM)	0.78 (≈ 2.26 µM)	1.56 (≈ 4.52 µM)	1.56 (≈ 4.52 µM)	6.25 (≈ 18.1 µM)	> 100	1.56 (≈ 4.52 µM)	1.56 (≈ 4.52 µM)	1.56 (≈ 4.52 µM)	0.78 (≈ 2.26 µM)	≤ 0.78	1.56 (≈ 4.52 µM)	1.56 (≈ 4.52 µM)	3.12 (≈ 9.05 µM)	> 100	0.78 (≈ 2.26 µM)	1.56 (≈ 4.52 µM)
Cc1cccc(NC(=S)N/N=C2\C(=O)Nc3c(Cl)cccc32)c1	0.78 (≈ 2.26 µM)	0.78 (≈ 2.26 µM)	1.56 (≈ 4.52 µM)	3.12 (≈ 9.05 µM)	6.25 (≈ 18.1 µM)	> 100	1.56 (≈ 4.52 µM)	1.56 (≈ 4.52 µM)	1.56 (≈ 4.52 µM)	0.78 (≈ 2.26 µM)	≤ 0.78	1.56 (≈ 4.52 µM)	0.78 (≈ 2.26 µM)	3.12 (≈ 9.05 µM)	> 100	0.78 (≈ 2.26 µM)	1.56 (≈ 4.52 µM)
O=C1Nc2c(Br)cccc2/C1=N/NC(=S)Nc1ccc(F)cc1	0.78 (≈ 1.98 µM)	0.39 (≈ 0.992 µM)	1.56 (≈ 3.97 µM)	1.56 (≈ 3.97 µM)	3.12 (≈ 7.93 µM)	> 100	0.78 (≈ 1.98 µM)	1.56 (≈ 3.97 µM)	0.78 (≈ 1.98 µM)	0.78 (≈ 1.98 µM)	≤ 0.78	0.78 (≈ 1.98 µM)	0.78 (≈ 1.98 µM)	1.56 (≈ 3.97 µM)	> 100	0.39 (≈ 0.992 µM)	1.56 (≈ 3.97 µM)
